Results taken from patent US9872514B2, “Compounds, compositions, and methods for reducing or eliminating bitter taste” (Chromocell Corporation, priority 2010, dated 2018).
Where two headings read alike, the source gives them in different places.

Legend:
Type in all cases: in vivo, humans
[1] = tested on: bitter taste of an aqueous solution of KCl; assay: Sip and spit bitterness rating of aqueous KCl test solutions; details: Homo sapiens, aqueous KCl 4.85 g/L, 1% EtOH, bitterness scored 0-15 vs KCl standard, dash = none of the tested conc.
Method: An amount of this stock compound solution is then added to an aqueous KCl solution. Enough EtOH is then added to the resulting stock compound/KCl solution so that the final KCl test solution contains 1% EtOH. KCl solution standards were similarly prepared by dissolving various amounts of KCl in water and ethanol without adding any test compound.
The effect of the test compounds an the perception of the bitter taste of an aqueous solution of KCl in humans was evaluated using a “sip and spit” test as follows.
(§1) A set of KCl solution standards was developed and each standard solution was assigned a bitterness taste score of 0-15 (corresponding to aqueous KCl concentrations of 0 mM-120 mM). Panelists were trained to recognize these standards. In addition, before each day of testing, panelists were tested to see if they could determine differences in taste between the standard solutions. If a panelist was unable to recognize a change in KCl concentration, they were excluded from the panel for that day.
(§2) In a blind taste test, panelists were asked to compare the bitter taste of a small quantity (e.g., 8 ml) of each of the KCl Test Solutions to the taste of a KCl solution standard, without swallowing (see, e.g., Table 1). Specifically, panelists were asked to rate the bitterness of each KCl Test Solution on a scale of 0-15 using the same scale developed for the KCl solution standards. Each sample was tested in 2-4 discrete taste test experiments. Panelists were asked to rinse with water, eat a cracker, and wait approximately 10 minutes between samples.

[2] = tested on: bitter taste of an aqueous solution of potassium lactate; assay: Sip and spit bitterness rating of aqueous potassium lactate test solutions; details: Homo sapiens, aqueous potassium lactate 41 g/L, 1% EtOH, dash = none of the tested conc.
Method: as §1, §2
Edible potassium lactate solution compositions (“potassium lactate test solutions”) were prepared by first dissolving varying amounts of the test compounds in an amount of ethanol or water (depending on the solubility of the compound) to create a 5 mg/mL stock compound solution. An amount of this stock compound solution is then added to an aqueous potassium lactate solution. Enough EtOH is then added to the resulting stock compound/potassium lactate solution so that the final potassium lactate test solution contains 1% EtOH. Potassium lactate solution standards were similarly prepared by dissolving various amounts of potassium lactate in water and ethanol without adding any test compound.
The effect of the test compounds on the perception of the bitter taste of an aqueous solution of potassium lactate in humans was evaluated using the “sip and spit” test described in Example 2.

[3] = tested on: bitter taste of an aqueous solution of KCl; assay: Latin Square-2AFC sip and spit test of aqueous KCl solutions; details: Homo sapiens, aqueous KCl 4.85 g/L, Latin Square-2AFC vs KCl standard, dash = none of the tested conc.
Method: The effect of the test compounds on the perception of the bitter taste of an aqueous solution of KCl in humans was evaluated using a “sip and spit” test using a Latin Square-2AFC testing method as follows.
In a blind taste test, panelists were asked to compare the bitter taste of a small quantity (e.g., 8 ml) of a KCl Test Solution to the taste of a KCl solution standard (prepared as described in Example 1), without swallowing. NaCl solution standards were prepared as described in Example 1.
In order to eliminate any effects of sample order, a complete Latin Square design was employed so that each possible order of sample presentation was utilized across subjects. Each sample was tested in several discrete taste test experiments. Panelists were asked to rinse with water, eat a cracker, and wait about 10 minutes between samples. In each case, the panelists were asked to choose the sample which tasted “less bitter.” Illustrative results of the aqueous solution Latin Square-2AFC testing are presented in Table 5.

[4] = tested on: bitter taste of KCl foodstuff slurries; assay: Latin Square-2AFC sip and spit test of KCl turkey slurry; details: 1.6% KCl, dash = none of the tested conc.
Method: The effect of the test compounds on the perception of the bitter taste of KCl foodstuff slurries in humans was evaluated using a “sip and spit” test using a Latin Square-2AFC testing method as follows.
In a blind taste test, panelists received two portions of turkey slurry—one portion being the KCl foodstuff slurry standard and the other being one of the KCl test foodstuff slurries (prepared as described in Example 5). NaCl foodstuff slurry standards were prepared as described in Example 1.
(§3) The panelists tasted each of the portions by sipping and spitting. In order to eliminate any effects of sample order, a complete Latin Square design was employed so that each possible order of sample presentation was utilized across subjects. Each sample was tested in several discrete taste test experiments. Panelists were asked to rinse with water, eat a cracker, and wait about 10 minutes between samples. In each case, the panelists were asked to choose the sample that tasted less bitter.

[5] = tested on: bitter taste of KCl in solid-matrix foodstuffs; assay: Latin Square-2AFC chew and spit test of KCl solid turkey; details: Homo sapiens, 1.6% KCl (80% KCl:20% NaCl marinade), dash = none of the tested conc.
Method: The effect of the test compounds on the perception of the bitter taste of KCl in solid-matrix foodstuffs in humans was evaluated using a “chew and spit” test using a Latin Square-2AFC testing method as follows.
Two types of marinades containing Prague powder, sugar, Evian™ water, KCl and/or NaCl in water were prepared. One marinade contained 80% KCl, 20% NaCl (by weight) (i.e., marinade concentration of […]). A second marinade contained 60% KCl:40% NaCl (by weight) (i.e., marinade concentration of 1.2% KCl). Compound stock solutions were prepared by dissolving an amount of test compound in ethanol or water (depending on the solubility of the compound) to create a 5 mg/mL stock compound solution. Enough ethanol was added to each stock compound solution to generate a final stock compound solution containing 1% ethanol. The marinade, the stock compound solution and ground turkey were added to a mixing bowl, mixed at low-speed for about 2 minutes, and then mixed at high-speed for about 5 minutes. The marinated turkey mixture was divided into one pound aliquots, vacuum sealed into food saver bags, and allowed to marinate for about 2 hours in a refrigerator. The vacuum-sealed turkey was then cooked in an about 86° C. water bath for about 30 minutes. If after about 30 minutes, the internal turkey temperature had not reached about 170° F., the vacuum-sealed turkey was cooked for about an additional 5 minutes. The vacuum-sealed turkey was then refrigerated for about two weeks before taste testing. KCl standards were similarly prepared by dissolving KCl in the marinade without adding any test compound during the turkey preparation.
as §3, with “tasted” for “tasted each of the”, “by chewing” for “by sipping”, “Each simple” for “Each sample”, “water, cat” for “water, eat”

[6] = tested on: bitter taste of KCl foodstuff slurries; assay: Two-alternative forced choice (2AFC) sip and spit test of KCl turkey foodstuff slurries; details: Homo sapiens, turkey slurry, 1.6% KCl, 2AFC vs KCl slurry standard, dash = none of the tested conc.
Method: Edible KCl food compositions (“KCl test foodstuff slurries”) were prepared as follows. Dehydrated, salt-free turkey powder was weighed and mixed with various amounts of KCl and/or NaCl and then solubilized with boiling water to create a homogenized solubilized turkey slurry. Varying amounts of the test compounds were dissolved in an amount of ethanol or water (depending on the solubility of the compound) to create a 5 mg/mL stock compound solution. An amount of this stock compound solution was then added to the turkey slurry. Enough EtOH is then added to the resulting stock compound/turkey slurry so that the slurry contains 1% EtOH. The slurry was again homogenized by boiling and mixing and allowed to cool to yield the final KCl test foodstuff slurry for taste testing KCl foodstuff slurry standards were similarly prepared without any test compound.
The effect of the test compounds on the perception of the bitter taste of KCl foodstuff slurries in humans was evaluated using a two-alternative-forced-choice “sip and spit” test as follows.
(§4) In a blind taste test, panelists received two portions of turkey slurry—one portion being the KCl foodstuff slurry standard and the other being one of the KCl test foodstuff slurries (each prepared as described in Example 5). The panelists tasted each of the portions by sipping and spitting. Each sample was tested in 2-4 discrete taste test experiments. Panelists were asked to rinse with water, eat a cracker, and wait about 10 minutes between samples. In each case, the panelists were asked to compare the bitter taste of the two turkey samples to each other (i.e., panelists were asked to indicate which sample was less bitter).

[7] = tested on: bitter taste of potassium lactate foodstuffs; assay: 2AFC sip and spit test of potassium lactate turkey foodstuff slurries; details: turkey slurry, 4.5% potassium lactate, 2AFC vs standard; dash = none of the tested conc.
Method: as §4
Edible potassium lactate food compositions (“potassium lactate test foodstuff slurries”) were prepared as follows. Dehydrated, salt-free turkey powder was weighed and mixed with various amounts of potassium lactate and/or sodium lactate and then solubilized with boiling water to create a homogenized solubilized turkey slurry. Varying amounts of the test compounds were dissolved in an amount of ethanol or water depending on the solubility of the compound) to create a 5 mg/mL stock compound solution. An amount of this stock compound solution was then added to the turkey slurry. Enough EtOH is then added to the resulting stock compound/turkey slurry so that the final slurry contains 1% EtOH. The final slurry was again homogenized by boiling and mixing and allowed to cool to yield the final slurry for taste testing. Potassium lactate foodstuff slurry standards were similarly prepared without any test compound.
The effect of the test compounds on the perception of the bitter taste of potassium lactate foodstuffs in humans was evaluated using the two-alternative-forced-choice “sip and spit” test described in Example 6.

[8] = read-out: Conc. Where Decrease in Bitter Taste Discerned and p ≦ 0.1
[9] = read-out: Conc. Where Decrease in Bitter Taste Was Discerned
[10] = read-out: Conc. at Which At Least 50% of Panelist Discerned Decrease in Bitter Taste
[11] = read-out: Conc. at Which At Least 50% of Panelist Discerned Decrease in Bitter Taste and p ≦ 0.1

SMILES	minimal effective concentration [1, 8] [µg/mL]	minimal effective concentration [2, 9] [µg/mL]	minimal effective concentration [2, 8] [µg/mL]	minimal effective concentration [5, 11] [µg/mL]	further results
C/C=C/C(=O)C1C(C)=CCCC1(C)C (stereo not shown) [Compound 2]	10	1			minimal effective concentration [3, 10]: 2 µg/mL; Conc. at Which At Least 50% of Panelist Discerned Decrease in Bitter Taste [4]: 25 ppm; minimal effective concentration [5, 10]: 10 µg/mL
CCC(=O)OCCC(C)CCC=C(C)C (stereo not shown) [Compound 10]	1	0.1			minimal effective concentration [6, 10]: 0.1 µg/mL; minimal effective concentration [5, 10]: 0.5 µg/mL
CC(C)=CCCC(C)CCOC(=O)C(C)C (stereo not shown) [Compound 11]	10				minimal effective concentration [3, 10]: 1 µg/mL
CCC(=O)OC/C=C(\C)CCC=C(C)C [Compound 22]	1		1		minimal effective concentration [3, 11]: 0.25 µg/mL
CC(C)=CCC/C(C)=C/COC(=O)Cc1ccccc1 [Compound 26]	1	10	10		Conc. at Which At Least 50% of Panelist Discerned Decrease in Bitter Taste [4]: 0.6 ppm
CC(C)=CCC/C(C)=C\CO [Compound 31]	10		10	4	minimal effective concentration [6, 10]: 10 µg/mL
CC(C)=CCC/C(C)=C\COC(=O)C(C)C [Compound 34]			1		minimal effective concentration [5, 10]: 2 µg/mL
CC(=O)OC/C=C(\C)CCC[C@H](C)CCC[C@H](C)CCCC(C)C [Compound 41]	10	5		2.5	minimal effective concentration [1, 9]: 10 µg/mL; minimal effective concentration [3, 11]: 1 µg/mL
O=C1CCc2ccccc2O1 [Compound 53]	10	10	10		Conc. at Which At Least 50% of Panelist Discerned Decrease in Bitter Taste [7]: 5 ppm; minimal effective concentration [3, 10]: 1 µg/mL
OCc1ccc(O)cc1 [Compound 69]	1			1	minimal effective concentration [6, 11]: 10 µg/mL
CC12CCC(CC1=O)C2(C)C (stereo not shown) [Compound 74]		1	1	10	minimal effective concentration [6, 10]: 10 µg/mL; Conc. at Which At Least 50% of Panelist Discerned Decrease in Bitter Taste [7]: 1 ppm; minimal effective concentration [3, 11]: 1 µg/mL
CCC1(O)C2(C)CCC(C2)C1(C)C (stereo not shown) [Compound 85]	1	5	5	1	minimal effective concentration [3, 10]: 0.005 µg/mL
COc1ccc2c(=O)cc(-c3ccccc3)oc2c1 [Compound 95]			1		Conc. at Which At Least 50% of Panelist Discerned Decrease in Bitter Taste and p ≦ 0.1 [7]: 10 ppm
C[C@H]1CC[C@@H](C(C)(C)O)CC2=C1CC[C@@H]2C [Compound 120]					minimal effective concentration [6, 10]: 10 µg/mL; Conc. at Which At Least 50% of Panelist Discerned Decrease in Bitter Taste [7]: 10 ppm
